The test system of one data set is Artemia. The data set can be described thus: Toxicity in brine shrimp. The note with it: in vivo. Format: organism-based.
The test system of the next data set is A549. The data set can be described thus: Cytotoxicity against human A549 cells. Particulars: read-out: ED50 (the source's name). Type of data set: functional.
Another data set relates to SK-OV-3. The data set can be described thus: Cytotoxicity against human SKOV3 cells. The note with it: read-out: ED50 (the source's name). Format: functional.
The subject of the next data set is SK-MEL-2. The data set can be described thus: Cytotoxicity against human SK-MEL-2 cells. The note with it: read-out: ED50 (the source's name). Format: functional.
The subject of the next data set is HCT-15. The data set can be described thus: Cytotoxicity against human HCT15 cells. Type of data set: functional. The note with it: read-out: ED50 (the source's name).

Converted amounts (≈) assume the structure as drawn.

For the molecule `CC(=O)O[C@]1(C)CC/C=C(\C)C[C@@H]2O[C@H]1[C@H]1[C@@H]2C(C)=CC[C@@H]1C(C)C`, the LD50 in the data set on Artemia was 0.3 ppm. The EC50 amounted to 12.7 µg/mL (≈ 36.7 µM) in the data set with A549, 21.3 µg/mL (≈ 61.5 µM) in the data set with SK-OV-3, 11.6 µg/mL (≈ 33.5 µM) in the data set with SK-MEL-2 and 13.9 µg/mL (≈ 40.1 µM) with HCT-15.
In the data set with Artemia, `C=C1CC[C@H](C(C)C)[C@@H]2[C@H]1[C@@H]1C/C(C)=C/CC[C@@](C)(OC(C)=O)[C@H]2O1` [CLADIELLIN] had an LD50 of 1.3 ppm.
For the molecule `CC(=O)O[C@@H]1C=C(C)[C@H]2[C@@H]([C@H]1C(C)(C)OC(C)=O)[C@@H]1O[C@H]2C/C(C)=C/CC[C@@]1(C)OC(C)=O` [OPHIRIN], in the data set with Artemia, the LD50 was found to be 8.7 ppm.
Same read-out and setting: the figure for `CC(=O)O[C@@H]1C=C(C)[C@H]2[C@@H]([C@H]1C(C)C)[C@@H]1O[C@H]2C/C(C)=C/CC[C@@]1(C)OC(C)=O` [CALICOPHIRIN B] is 1 ppm.
As to `CC1=CC[C@H](C(C)C)[C@@H]2[C@H]1[C@@H]1C/C(C)=C/CC[C@@](C)(O)[C@H]2O1`, in the data set on Artemia, the LD50 was 39.2 ppm.
In the data set on Artemia, `C=C1C[C@@H]2O[C@@H]([C@H]3[C@@H]2C(C)=C[C@@H](OC(C)=O)[C@@H]3C(C)(C)OC(C)=O)[C@](C)(OC(C)=O)CC[C@@H]1OC(C)=O` [ASTROGORGIN] showed an LD50 of 1.8 ppm.
Same read-out and setting: the same measure for `CC1=C[C@@H](O)[C@H](C(C)(C)O)[C@@H]2[C@H]1[C@@H]1C/C(C)=C/CC[C@@](C)(O)[C@H]2O1`: 48 ppm.

Source of the values: ChEMBL document CHEMBL1146392, “Isolation of Diterpenoids of the Cladiellane Class from Gorgonians of the Genus Muricella” (J Nat Prod, 1997).
